According to ChEMBL document CHEMBL3774314, “Ammonium tetrathiomolybdate as a water-soluble and slow-release hydrogen sulfide donor” (Bioorg Med Chem Lett, 2016):
Calls of active or inactive are those of the source. The calls are words filed in the database; no cut-off is given here.

Experiments:
[1] = Induction of Hydrogen sulfide production at pH 5 to 8 measured upto 15 hrs by UV-vis method based zinc-sulfide precipitation based methylene blue Method; assay type: physicochemical; settings: pH 5, 15 h
HaCaT [2] = assay: Effect on mitochondrial membrane potential in human HaCaT cells after 1 hr by Rhodamine 123 staining based fluorescence assay; assay type: ADME, cell-based
HaCaT [3] = assay: Toxicity in human HaCaT cells assessed as H2O2-induced decrease in cell viability at 400 uM after 1 hr by CCK8 assay; assay type: cell-based
HaCaT [4] = assay: Cytoprotective activity in human HaCaT cells assessed as inhibition of H2O2-induced decrease in cell viability at 50 to 200 uM after 1 hr by CCK8 assay; assay type: functional, cell-based
HaCaT [5] = assay: Cytoprotective activity in human HaCaT cells assessed as inhibition of H2O2-induced decrease in LDH release at 200 uM; assay type: functional, cell-based
HaCaT [6] = assay: Cytoprotective in human HaCaT cells assessed as inhibition of H2O2-induced decrease in mitochondrial membrane potential at 200 uM preincubated for 1 hr followed by H2O2 addition by Rhodamine 123 staining based fluorescence assay; assay type: functional, cell-based

Activity [1] | Sequence | Activity (HaCaT [2]) | Activity (HaCaT [3]) | Activity (HaCaT [4]) | Activity (HaCaT [5]) | Activity (HaCaT [6])
Active | TIOMOLIBDATE DIAMMONIUM [listing 1 of 2 here] | Non-toxic | Toxic | – | – | –
– | TIOMOLIBDATE DIAMMONIUM [listing 2 of 2 here] | – | – | Active | Active | Active
